The text below walks through data of ChEMBL document CHEMBL3045794, “Antimicrobial activity of thiazolyl benzenesulfonamide-condensed 2,4-thiazolidinediones derivatives” (2013).

Values after ≈ are worked out from the molar mass of the structure shown.

For orientation: MIC99 means an inhibitory concentration at the 99% level, which refers to growth in some studies and to a panel of isolates in others. The MIC is the lowest concentration found to suppress growth.

For one assay, the system named is Escherichia coli. The assay can be described thus: microbe, parasite or virus in culture. Conditions: MTCC 739, 24 h, read-out: DIZ.
Description: Antibacterial activity against Escherichia coli MTCC 739 assessed as diameter of growth inhibition zone at 100 ug/disk after 24 hr by Kirby-Bauer disk diffusion method
For `O=C(O)c1cn(C2CC2)c2cc(N3CCNCC3)c(F)cc2c1=O` [CIPROFLOXACIN], the zone of inhibition at 100 µg/disc was 30 mm.

Another assay relates to Staphylococcus aureus. The assay can be described thus: Antibacterial activity against Staphylococcus aureus MTCC 96 assessed as diameter of growth inhibition zone at 100 ug/disk after 24 hr by Kirby-Bauer disk diffusion method. Conditions: MTCC 96, 24 h, read-out: DIZ. A general note: In agar diffusion tests the substance spreads into inoculated agar from a disc or well.
As for `O=C(O)c1cn(C2CC2)c2cc(N3CCNCC3)c(F)cc2c1=O` [CIPROFLOXACIN], the zone of inhibition at 100 µg/disc came out at 32 mm.

The test system of a further assay is Pseudomonas aeruginosa. As to the kind of experiment: Antibacterial activity against Pseudomonas aeruginosa MTCC 741 assessed as diameter of growth inhibition zone after 24 hr by Kirby-Bauer disk diffusion method.
Conditions: not given
The assay is classed as functional.
As for `O=C1S/C(=C\c2ccc(S(=O)(=O)Nc3nc(-c4ccccc4)cs3)cc2)C(=O)N1C(=O)c1ccc([N+](=O)[O-])cc1`, the “diameter of the inhibition zone (DIZ)” value worked out at 24 mm.
Turning to `O=C1S/C(=C\c2ccc(S(=O)(=O)Nc3nc(-c4ccccc4)cs3)cc2)C(=O)N1C(=O)c1ccc([N+](=O)[O-])cc1[N+](=O)[O-]`, the “diameter of the inhibition zone (DIZ)” value was found to be 22 mm.
Still for that read-out and setting: for `O=C1S/C(=C\c2ccc(S(=O)(=O)Nc3nc(-c4ccccc4)cs3)cc2)C(=O)N1C(=O)c1ccccc1` the value was 22 mm.
Regarding `O=C1S/C(=C\c2ccc(S(=O)(=O)Nc3nc(-c4ccccc4)cs3)cc2)C(=O)N1C(=O)c1cccc([N+](=O)[O-])c1`, the “diameter of the inhibition zone (DIZ)” value is recorded as 22 mm.

The next assay deals with Escherichia coli. As to the kind of experiment: Antibacterial activity against Escherichia coli MTCC 739 assessed as diameter of growth inhibition zone after 24 hr by Kirby-Bauer disk diffusion method.
Conditions: not given
In kind it is functional.
Regarding `O=C1S/C(=C\c2ccc(S(=O)(=O)Nc3nc(-c4ccccc4)cs3)cc2)C(=O)N1C(=O)c1ccc([N+](=O)[O-])cc1`, the “diameter of the inhibition zone (DIZ)” value was 24 mm.
On the same count and under the same terms, in the case of `O=C1S/C(=C\c2ccc(S(=O)(=O)Nc3nc(-c4ccccc4)cs3)cc2)C(=O)N1C(=O)c1ccc([N+](=O)[O-])cc1[N+](=O)[O-]` it was 24 mm; in that of `O=C1S/C(=C\c2ccc(S(=O)(=O)Nc3nc(-c4ccccc4)cs3)cc2)C(=O)N1C(=O)c1ccccc1`, 22 mm; in that of `O=C1S/C(=C\c2ccc(S(=O)(=O)Nc3nc(-c4ccccc4)cs3)cc2)C(=O)N1C(=O)c1cccc([N+](=O)[O-])c1`, 22 mm.

The next assay deals with Mycobacterium tuberculosis. As to the kind of experiment: Antitubercular activity against Mycobacterium tuberculosis H37Rv MTCC 200 assessed as growth inhibition measured within 10 days by BACTEC MGIT method. Particulars: H37Rv MTCC 200, 240 h. The assay is classed as functional.
For the molecule `O=C1S/C(=C\c2ccc(S(=O)(=O)Nc3nc(-c4ccccc4)cs3)cc2)C(=O)N1C(=O)c1ccc([N+](=O)[O-])cc1`, the MIC99 worked out at 500 µg/mL (≈ 844 µM).
As for `O=C1S/C(=C\c2ccc(S(=O)(=O)Nc3nc(-c4ccccc4)cs3)cc2)C(=O)N1C(=O)c1ccc([N+](=O)[O-])cc1[N+](=O)[O-]`, the MIC99 was found to be 1000 µg/mL (≈ 1570 µM).
Still for that read-out and setting: for `O=C1S/C(=C\c2ccc(S(=O)(=O)Nc3nc(-c4ccccc4)cs3)cc2)C(=O)N1C(=O)c1ccccc1` the value was 125 µg/mL (≈ 228 µM).
Still for that read-out and setting: for `O=C1S/C(=C\c2ccc(S(=O)(=O)Nc3nc(-c4ccccc4)cs3)cc2)C(=O)N1C(=O)c1cccc([N+](=O)[O-])c1` the value was 1000 µg/mL (≈ 1690 µM).

The test system of another assay is Staphylococcus aureus. As to the kind of experiment: Antibacterial activity against Staphylococcus aureus MTCC 96 assessed as diameter of growth inhibition zone after 24 hr by Kirby-Bauer disk diffusion method.
Conditions: not given
The assay is classed as functional.
Turning to `O=C1S/C(=C\c2ccc(S(=O)(=O)Nc3nc(-c4ccccc4)cs3)cc2)C(=O)N1C(=O)c1ccc([N+](=O)[O-])cc1`, the “diameter of the inhibition zone (DIZ)” value worked out at 25 mm.
On the same count and under the same terms, for `O=C1S/C(=C\c2ccc(S(=O)(=O)Nc3nc(-c4ccccc4)cs3)cc2)C(=O)N1C(=O)c1ccc([N+](=O)[O-])cc1[N+](=O)[O-]` the value was 23 mm; for `O=C1S/C(=C\c2ccc(S(=O)(=O)Nc3nc(-c4ccccc4)cs3)cc2)C(=O)N1C(=O)c1ccccc1`, 21 mm.
Turning to `O=C1S/C(=C\c2ccc(S(=O)(=O)Nc3nc(-c4ccccc4)cs3)cc2)C(=O)N1C(=O)c1cccc([N+](=O)[O-])c1`, the “diameter of the inhibition zone (DIZ)” value came out at 21 mm.

A further assay deals with Bacillus subtilis. The assay can be described thus: Antibacterial activity against Bacillus subtilis MTCC 619 assessed as growth inhibition after 24 hr by Kirby-Bauer disk diffusion method. The assay is classed as functional. Particulars: MTCC 619, 24 h.
As to `O=C1S/C(=C\c2ccc(S(=O)(=O)Nc3nc(-c4ccccc4)cs3)cc2)C(=O)N1C(=O)c1ccc([N+](=O)[O-])cc1`, the MIC stood at 12.5 µg/mL (≈ 21.1 µM).
On the same count and under the same terms, for `O=C1S/C(=C\c2ccc(S(=O)(=O)Nc3nc(-c4ccccc4)cs3)cc2)C(=O)N1C(=O)c1ccc([N+](=O)[O-])cc1[N+](=O)[O-]` the value was 6.25 µg/mL (≈ 9.8 µM); for `O=C1S/C(=C\c2ccc(S(=O)(=O)Nc3nc(-c4ccccc4)cs3)cc2)C(=O)N1C(=O)c1ccccc1`, 25 µg/mL (≈ 45.7 µM).
Same read-out and setting: for `O=C1S/C(=C\c2ccc(S(=O)(=O)Nc3nc(-c4ccccc4)cs3)cc2)C(=O)N1C(=O)c1cccc([N+](=O)[O-])c1` the value was 25 µg/mL (≈ 42.2 µM).
The same measure, in the same setting: for `O=C(O)c1cn(C2CC2)c2cc(N3CCNCC3)c(F)cc2c1=O` [CIPROFLOXACIN] the value was no more than 1 µg/mL.

A further assay has as its system Pseudomonas aeruginosa. As to the kind of experiment: microbe, parasite or virus in culture. Conditions: MTCC 741, 24 h, read-out: DIZ.
Description: Antibacterial activity against Pseudomonas aeruginosa MTCC 741 assessed as diameter of growth inhibition zone at 100 ug/disk after 24 hr by Kirby-Bauer disk diffusion method
With `O=C(O)c1cn(C2CC2)c2cc(N3CCNCC3)c(F)cc2c1=O` [CIPROFLOXACIN], the zone of inhibition at 100 µg/disc came out at 31 mm.

A further assay deals with Bacillus subtilis. The assay can be described thus: Antibacterial activity against Bacillus subtilis MTCC 619 assessed as diameter of growth inhibition zone after 24 hr by Kirby-Bauer disk diffusion method. The assay is classed as functional.
Conditions: not given
For the molecule `O=C1S/C(=C\c2ccc(S(=O)(=O)Nc3nc(-c4ccccc4)cs3)cc2)C(=O)N1C(=O)c1ccc([N+](=O)[O-])cc1`, the “diameter of the inhibition zone (DIZ)” value is 24 mm.
In the case of `O=C1S/C(=C\c2ccc(S(=O)(=O)Nc3nc(-c4ccccc4)cs3)cc2)C(=O)N1C(=O)c1ccc([N+](=O)[O-])cc1[N+](=O)[O-]`, the “diameter of the inhibition zone (DIZ)” value came to 22 mm.
Consider `O=C1S/C(=C\c2ccc(S(=O)(=O)Nc3nc(-c4ccccc4)cs3)cc2)C(=O)N1C(=O)c1ccccc1`, for which the “diameter of the inhibition zone (DIZ)” value was 24 mm.
The same measure, in the same setting: for `O=C1S/C(=C\c2ccc(S(=O)(=O)Nc3nc(-c4ccccc4)cs3)cc2)C(=O)N1C(=O)c1cccc([N+](=O)[O-])c1` the value was 24 mm.

The next assay deals with Pseudomonas aeruginosa. As to the kind of experiment: Antibacterial activity against Pseudomonas aeruginosa MTCC 741 assessed as growth inhibition after 24 hr by Kirby-Bauer disk diffusion method. In kind it is functional. Conditions: MTCC 741, 24 h.
Turning to `O=C1S/C(=C\c2ccc(S(=O)(=O)Nc3nc(-c4ccccc4)cs3)cc2)C(=O)N1C(=O)c1ccc([N+](=O)[O-])cc1`, the MIC turned out to be 25 µg/mL (≈ 42.2 µM).
The same measure, in the same setting: for `O=C1S/C(=C\c2ccc(S(=O)(=O)Nc3nc(-c4ccccc4)cs3)cc2)C(=O)N1C(=O)c1ccc([N+](=O)[O-])cc1[N+](=O)[O-]` the value was 100 µg/mL (≈ 157 µM); for `O=C1S/C(=C\c2ccc(S(=O)(=O)Nc3nc(-c4ccccc4)cs3)cc2)C(=O)N1C(=O)c1ccccc1`, 62.5 µg/mL (≈ 114 µM).
Regarding `O=C1S/C(=C\c2ccc(S(=O)(=O)Nc3nc(-c4ccccc4)cs3)cc2)C(=O)N1C(=O)c1cccc([N+](=O)[O-])c1`, the MIC turned out to be 62.5 µg/mL (≈ 105 µM).
On the same count and under the same terms, in the case of `O=C(O)c1cn(C2CC2)c2cc(N3CCNCC3)c(F)cc2c1=O` [CIPROFLOXACIN] it was no more than 1 µg/mL.

The next assay has as its system Escherichia coli. The assay can be described thus: Antibacterial activity against Escherichia coli MTCC 739 assessed as growth inhibition after 24 hr by Kirby-Bauer disk diffusion method. In kind it is functional. Conditions: MTCC 739, 24 h.
As for `O=C1S/C(=C\c2ccc(S(=O)(=O)Nc3nc(-c4ccccc4)cs3)cc2)C(=O)N1C(=O)c1ccc([N+](=O)[O-])cc1`, the MIC was 50 µg/mL (≈ 84.4 µM).
In the case of `O=C1S/C(=C\c2ccc(S(=O)(=O)Nc3nc(-c4ccccc4)cs3)cc2)C(=O)N1C(=O)c1ccc([N+](=O)[O-])cc1[N+](=O)[O-]`, the MIC turned out to be 12.5 µg/mL (≈ 19.6 µM).
Consider `O=C1S/C(=C\c2ccc(S(=O)(=O)Nc3nc(-c4ccccc4)cs3)cc2)C(=O)N1C(=O)c1ccccc1`, for which the MIC worked out at 62.5 µg/mL (≈ 114 µM).
The same measure, in the same setting: in the case of `O=C1S/C(=C\c2ccc(S(=O)(=O)Nc3nc(-c4ccccc4)cs3)cc2)C(=O)N1C(=O)c1cccc([N+](=O)[O-])c1` it was 62.5 µg/mL (≈ 105 µM); in that of `O=C(O)c1cn(C2CC2)c2cc(N3CCNCC3)c(F)cc2c1=O` [CIPROFLOXACIN], no more than 1 µg/mL.

In a further assay the test system is Staphylococcus aureus. As to the kind of experiment: Antibacterial activity against Staphylococcus aureus MTCC 96 assessed as growth inhibition after 24 hr by Kirby-Bauer disk diffusion method. The assay is classed as functional. Particulars: MTCC 96, 24 h.
For `O=C1S/C(=C\c2ccc(S(=O)(=O)Nc3nc(-c4ccccc4)cs3)cc2)C(=O)N1C(=O)c1ccc([N+](=O)[O-])cc1`, the MIC was 25 µg/mL (≈ 42.2 µM).
Same read-out and setting: in the case of `O=C1S/C(=C\c2ccc(S(=O)(=O)Nc3nc(-c4ccccc4)cs3)cc2)C(=O)N1C(=O)c1ccc([N+](=O)[O-])cc1[N+](=O)[O-]` it was 12.5 µg/mL (≈ 19.6 µM); in that of `O=C1S/C(=C\c2ccc(S(=O)(=O)Nc3nc(-c4ccccc4)cs3)cc2)C(=O)N1C(=O)c1ccccc1`, 62.5 µg/mL (≈ 114 µM).
Still for that read-out and setting: in the case of `O=C1S/C(=C\c2ccc(S(=O)(=O)Nc3nc(-c4ccccc4)cs3)cc2)C(=O)N1C(=O)c1cccc([N+](=O)[O-])c1` it was 62.5 µg/mL (≈ 105 µM).
Same read-out and setting: in the case of `O=C(O)c1cn(C2CC2)c2cc(N3CCNCC3)c(F)cc2c1=O` [CIPROFLOXACIN] it was no more than 1 µg/mL.

In a further assay the test system is Bacillus subtilis. As to the kind of experiment: microbe, parasite or virus in culture. Particulars: MTCC 619, 24 h, read-out: DIZ.
Description: Antibacterial activity against Bacillus subtilis MTCC 619 assessed as diameter of growth inhibition zone at 100 ug/disk after 24 hr by Kirby-Bauer disk diffusion method
Regarding `O=C(O)c1cn(C2CC2)c2cc(N3CCNCC3)c(F)cc2c1=O` [CIPROFLOXACIN], the zone of inhibition at 100 µg/disc is 33 mm.
